Assay results published in patent US20070049593A1 (priority 2004, published 2007).
pIC50: −log10 of the molar value. Structures can show the parent of a compound that is named as a salt.

These molecules were tested against T1, HCV polymerase (Hepatitis C virus genotype 1b, UniProt P26663) (assay: biochemical).
T1 construct: a region encoding NS5B (J Virol 1991 March, 65(3), 1105-13, 544 amino acids after deletion of 47 amino acids on the C-terminal); 6xHis (C); made in house; host or cells: Escherichia coli
Set-up: species or system HCV BK strain
Procedure, shortened: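 Recombinant HCV BK-strain NS5B (C-terminal 47 aa deleted, His6-tagged, E. coli), 0.5 μg/ml, run with 5 μg/ml in vitro-transcribed RNA template (polyU/3′X), ATP/GTP/CTP 50 μM, UTP 2 μM plus [3H]UTP, pH 7.5, 25° C, 90 min. TCA-precipitated RNA counted by scintillation; IC50 from activity with vs without compound.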

T1 sequence (P26663 2420-2963): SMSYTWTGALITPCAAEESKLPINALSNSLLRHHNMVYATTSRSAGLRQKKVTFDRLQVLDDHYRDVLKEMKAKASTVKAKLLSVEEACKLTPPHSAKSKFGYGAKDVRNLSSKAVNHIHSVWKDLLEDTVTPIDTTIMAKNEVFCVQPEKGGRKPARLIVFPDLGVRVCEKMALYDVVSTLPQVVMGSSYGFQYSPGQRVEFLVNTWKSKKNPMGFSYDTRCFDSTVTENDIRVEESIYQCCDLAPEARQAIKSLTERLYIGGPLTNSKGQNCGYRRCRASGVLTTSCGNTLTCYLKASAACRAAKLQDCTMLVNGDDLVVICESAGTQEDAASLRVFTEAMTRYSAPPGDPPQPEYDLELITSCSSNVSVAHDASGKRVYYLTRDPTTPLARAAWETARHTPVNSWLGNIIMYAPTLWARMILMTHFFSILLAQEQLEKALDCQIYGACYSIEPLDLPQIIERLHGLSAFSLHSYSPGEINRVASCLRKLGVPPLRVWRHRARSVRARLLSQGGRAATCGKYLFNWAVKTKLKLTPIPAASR

Structure (SMILES) | pIC50
COc1ccc2c(c1)OCCn1c-2c(C2CCCCC2)c2ccc(C(=O)N[C@@H](Cc3ccc(NC(C)=O)cc3)C(=O)O)cc21 [Example 2-340, (S)-3-(4-acetylaminophenyl)-2-[(12-cyclohexyl-3-methoxy-6,7-dihydro-5-oxa-7a-azadibenzo[a,e]azulene-9-carbonyl)amino]propionic acid] | > 7.00
COc1ccc2c(c1)OCCn1c-2c(C2CCCCC2)c2ccc(C(=O)N[C@@H](Cc3ccc(NS(C)(=O)=O)cc3)C(=O)O)cc21 [Example 2-341, (S)-2-[(12-cyclohexyl-3-methoxy-6,7-dihydro-5-oxa-7a-azadibenzo[a,e]azulene-9-carbonyl)amino]-3-(4-methanesulfonylaminophenyl)propionic acid] | > 7.00
COCCCN(CCN1CCCCC1)c1cccc2c1OCCn1c-2c(C2CCCCC2)c2ccc(C(=O)O)cc21 [Example 2-342] | > 7.00
CN(C)Cc1ccccc1-c1cccc2c1OCCn1c-2c(C2CCCCC2)c2ccc(C(=O)O)cc21 [Example 2-343, 12-cyclohexyl-4-(2-dimethylaminomethylphenyl)-6,7-dihydro-5-oxa-7a-azadibenzo[a,e]azulene-9-carboxylic acid] | > 7.00
O=C(O)c1ccc2c(C3CCCCC3)c3n(c2c1)CCOc1c-3cccc1N1CCCCC1=O [Example 2-344, 12-cyclohexyl-4-(2-oxopiperidin-1-yl)-6,7-dihydro-5-oxa-7a-azadibenzo[a,e]azulene-9-carboxylic acid] | > 7.00
O=C(O)c1ccc2c(C3CCCCC3)c3n(c2c1)CCOc1c-3cccc1N1CCCCC1 [Example 2-345, 12-cyclohexyl-4-(piperidin-1-yl)-6,7-dihydro-5-oxa-7a-azadibenzo[a,e]azulene-9-carboxylic acid] | > 7.00
COc1ccc2c(c1)OCCn1c-2c(C2CCCCC2)c2ccc(C(=O)NC(C)(C)c3nc4ccc(C(=O)N(C)C)cc4[nH]3)cc21 [Example 2-346, N-[1-(6-dimethylcarbamoyl-1H-benzimidazol-2-yl)-1-methylethyl]-12-cyclohexyl-3-methoxy-6,7-dihydro-5-oxa-7a-azadibenzo[a,e]azulene-9-carboxamide] | > 7.00
COc1ccc2c(c1)OCCn1c-2c(C2CCCCC2)c2ccc(C(=O)NC(C)(C)c3nc4cc(C(=O)O)c(OC)cc4[nH]3)cc21 [Example 2-347, 2-{1-[(12-cyclohexyl-3-methoxy-6,7-dihydro-5-oxa-7a-azadibenzo[a,e]azulene-9-carbonyl)amino]-1-methylethyl}-6-methoxy-1H-benzimidazole-5-carboxylic acid] | > 7.00
COc1ccc2c(c1)OCCn1c-2c(C2CCCCC2)c2ccc(C(=O)NC(C)(C)c3nc4ccccc4o3)cc21 [Example 2-348, N-[1-(benzoxazol-2-yl)-1-methylethyl]-12-cyclohexyl-3-methoxy-6,7-dihydro-5-oxa-7a-azadibenzo[a,e]azulene-9-carboxamide] | > 7.00
COC(=O)c1ccc(NC(=O)C(C)(C)NC(=O)c2ccc3c(C4CCCCC4)c4n(c3c2)CCOc2cc(OC)ccc2-4)cc1 [Example 2-349, methyl 4-{2-[(12-cyclohexyl-3-methoxy-6,7-dihydro-5-oxa-7a-azadibenzo[a,e]azulene-9-carbonyl)amino]-2-methylpropionylamino}benzoate] | > 7.00
COc1ccc2c(c1)OCCn1c-2c(C2CCCCC2)c2ccc(C(=O)NC(C)(C)C(=O)Nc3ccc(C(=O)O)cc3)cc21 [Example 2-350, 4-{2-[(12-cyclohexyl-3-methoxy-6,7-dihydro-5-oxa-7a-azadibenzo[a,e]azulene-9-carbonyl)amino]-2-methylpropionylamino}benzoic acid] | > 7.00
CC(C)(NC(=O)c1ccc2c(C3CCCCC3)c3n(c2c1)CCOc1ccccc1-3)c1nc2ccccc2n1CCO [Example 2-351, N-{1-[1-(2-hydroxyethyl)-1H-benzimidazol-2-yl]-1-methylethyl}-12-cyclohexyl-6,7-dihydro-5-oxa-7a-azadibenzo[a,e]azulene-9-carboxamide] | > 7.00
COC(=O)[C@H](Cc1cccc(C(F)(F)F)c1)NC(=O)c1ccc2c(C3CCCCC3)c3n(c2c1)CCOc1cc(OC)ccc1-3 [Example 2-352, methyl (S)-2-[(12-cyclohexyl-3-methoxy-6,7-dihydro-5-oxa-7a-azadibenzo[a,e]azulene-9-carbonyl)amino]-3-(3-trifluoromethylphenyl)propionate] | > 7.00
COC(=O)C(Cc1cccc(O)c1)NC(=O)c1ccc2c(C3CCCCC3)c3n(c2c1)CCOc1cc(OC)ccc1-3 (stereo not shown) [Example 2-353, methyl 2-[(12-cyclohexyl-3-methoxy-6,7-dihydro-5-oxa-7a-azadibenzo[a,e]azulene-9-carbonyl)amino]-3-(3-hydroxyphenyl)propionate] | > 7.00
COc1ccc2c(c1)OCCn1c-2c(C2CCCCC2)c2ccc(C(=O)N[C@@H](Cc3cccc(C(F)(F)F)c3)C(=O)O)cc21 [Example 2-354, (S)-2-[(12-cyclohexyl-3-methoxy-6,7-dihydro-5-oxa-7a-azadibenzo[a,e]azulene-9-carbonyl)amino]-3-(3-trifluoromethylphenyl)propionic acid] | > 7.00
COc1ccc2c(c1)OCCn1c-2c(C2CCCCC2)c2ccc(C(=O)NC(Cc3cccc(O)c3)C(=O)O)cc21 (stereo not shown) [Example 2-355, 2-[(12-cyclohexyl-3-methoxy-6,7-dihydro-5-oxa-7a-azadibenzo[a,e]azulene-9-carbonyl)amino]-3-(3-hydroxyphenyl)propionic acid] | > 7.00
COC(=O)[C@H](Cc1ccncc1)NC(=O)c1ccc2c(C3CCCCC3)c3n(c2c1)CCOc1cc(OC)ccc1-3 [Example 2-356, methyl (S)-2-[(12-cyclohexyl-3-methoxy-6,7-dihydro-5-oxa-7a-azadibenzo[a,e]azulene-9-carbonyl)amino]-3-(pyridin-4-yl)propionate] | > 7.00
O=C(O)c1ccc2c(C3CCCCC3)c3n(c2c1)CCOc1c-3cccc1N(CC(=O)N1CCCOCC1)CC(=O)N1CCCOCC1 [Example 2-357, 4-{bis[2-(1,4-oxazepan-4-yl)-2-oxoethyl]amino}-12-cyclohexyl-6,7-dihydro-5-oxa-7a-azadibenzo[a,e]azulene-9-carboxylic acid] | > 7.00
CC(C)(NC(=O)c1ccc2c(C3CCCCC3)c3n(c2c1)CCOc1ccccc1-3)C(=O)N1CCC(O)(c2ccc(F)cc2)CC1 [Example 2-358, N-{2-[4-(4-fluorophenyl)-4-hydroxypiperidin-1-yl]-1,1-dimethyl-2-oxoethyl]-12-cyclohexyl-6,7-dihydro-5-oxa-7a-azadibenzo[a,e]azulene-9-carboxamide] | > 7.00
O=C(O)c1ccc2c(C3CCCCC3)c3n(c2c1)CCOc1c-3cccc1N(CC(=O)N1CCOCC1)CC(=O)N1CCOCC1 [Example 2-359, 4-{bis[2-(morpholin-4-yl)-2-oxoethyl]amino}-12-cyclohexyl-6,7-dihydro-5-oxa-7a-azadibenzo[a,e]azulene-9-carboxylic acid] | > 7.00
O=C(O)c1ccc2c(C3CCCCC3)c3n(c2c1)CCOc1c-3cccc1N(CCN1CCCOCC1)CCN1CCCOCC1 [Example 2-360, 4-{bis[2-(1,4-oxazepan-4-yl)ethyl]amino}-12-cyclohexyl-6,7-dihydro-5-oxa-7a-azadibenzo[a,e]azulene-9-carboxylic acid trihydrochloride] | > 7.00
O=C(O)c1ccc2c(C3CCCCC3)c3n(c2c1)CCOc1c-3cccc1N(CCN1CCOCC1)CCN1CCOCC1 [Example 2-361, 4-{bis[2-(morpholin-4-yl)ethyl]amino}-12-cyclohexyl-6,7-dihydro-5-oxa-7a-azadibenzo[a,e]azulene-9-carboxylic acid trihydrochloride] | > 7.00
COC(=O)Nc1ccc(C[C@H](NC(=O)c2ccc3c(C4CCCCC4)c4n(c3c2)CCOc2cc(OC)ccc2-4)C(=O)OC)cc1 [Example 2-362, methyl (S)-2-[(12-cyclohexyl-3-methoxy-6,7-dihydro-5-oxa-7a-azadibenzo[a,e]azulene-9-carbonyl)amino]-3-(4-methoxycarbonylaminophenyl)propionate] | > 7.00
COC(=O)[C@H](Cc1ccc(O)c(Cl)c1)NC(=O)c1ccc2c(C3CCCCC3)c3n(c2c1)CCOc1cc(OC)ccc1-3 [Example 2-363, methyl (S)-3-(3-chloro-4-hydroxyphenyl)-2-[(12-cyclohexyl-3-methoxy-6,7-dihydro-5-oxa-7a-azadibenzo[a,e]azulene-9-carbonyl)amino]propionate] | > 7.00
COC(=O)Nc1ccc(C[C@H](NC(=O)c2ccc3c(C4CCCCC4)c4n(c3c2)CCOc2cc(OC)ccc2-4)C(=O)O)cc1 [Example 2-364, (S)-2-[(12-cyclohexyl-3-methoxy-6,7-dihydro-5-oxa-7a-azadibenzo[a,e]azulene-9-carbonyl)amino]-3-(4-methoxycarbonylaminophenyl)propionic acid] | > 7.00
COc1ccc2c(c1)OCCn1c-2c(C2CCCCC2)c2ccc(C(=O)N[C@@H](Cc3ccc(O)c(Cl)c3)C(=O)O)cc21 [Example 2-365, (S)-3-(3-chloro-4-hydroxyphenyl)-2-[(12-cyclohexyl-3-methoxy-6,7-dihydro-5-oxa-7a-azadibenzo[a,e]azulene-9-carbonyl)amino]propionic acid] | > 7.00
COC(=O)[C@H](CCc1ccc(O)cc1)NC(=O)c1ccc2c(C3CCCCC3)c3n(c2c1)CCOc1cc(OC)ccc1-3 [Example 2-366, methyl (S)-2-[(12-cyclohexyl-3-methoxy-6,7-dihydro-5-oxa-7a-azadibenzo[a,e]azulene-9-carbonyl)amino]-4-(4-hydroxyphenyl)butyrate] | > 7.00
COc1ccc2c(c1)OCCn1c-2c(C2CCCCC2)c2ccc(C(=O)NC(C)(C)c3nc4cc(N(C)C)ccc4[nH]3)cc21 [Example 2-367, N-[1-(5-dimethylamino-1H-benzimidazol-2-yl)-1-methylethyl]-12-cyclohexyl-3-methoxy-6,7-dihydro-5-oxa-7a-azadibenzo[a,e]azulene-9-carboxamide] | > 7.00
